# Experimental data reported in patent US20190070268A1, “ABUSE-DETERRENT PHARMACEUTICAL COMPOSITIONS” (priority 2016, published 2019).
# Legend:
# [1] = tested on: Humicola insolens cutinase (HiC); assay type: biochemical
# [2] = molecular target: T1, Thermobifida cellulosilytica cutinase 1 (THC) (Thermobifida cellulosilytica, UniProt E9LVH8); assay type: biochemical
# T1 construct: made in house
# T1 sequence (E9LVH8 1-262): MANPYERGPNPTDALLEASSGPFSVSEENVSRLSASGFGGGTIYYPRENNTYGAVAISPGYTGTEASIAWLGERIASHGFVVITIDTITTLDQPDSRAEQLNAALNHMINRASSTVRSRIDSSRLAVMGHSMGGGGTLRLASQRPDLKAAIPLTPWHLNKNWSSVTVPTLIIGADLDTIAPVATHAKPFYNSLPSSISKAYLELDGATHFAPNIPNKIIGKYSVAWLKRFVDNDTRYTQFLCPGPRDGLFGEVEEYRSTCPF
# laccase mediator system [3] = assay: Laccase mediator system and methadone, oxygen measurement; assay type: biochemical; conditions: mediator ABTS (best effect)
# Experimental: (§1) During the reaction oxygen acts as electron acceptor and is reduced to water by laccases while the mediators are oxidized. The concentration of oxygen was measured as described above. Oxygen is consumed until the mediator is fully oxidized. […] The second step of the reaction is initiated by addition of the target substrate, which is consequently oxidized by the mediators.
# (§2) In the present experiments the final reaction mixtures contained 0.2 to 6 mM mediator, 1-10 units of laccase per ml and 100-3000 mg L^−1 opioid.
# For methadone, oxygen measurements were done, but with an extended palette of mediators: In addition to the aforementioned mediators, syringic acid, TEMPO, syringol and ABTS were tested.
# [4] = tested on: laccase from Myceliophthora thermophila (MtL); assay: Polymerization of morphine with laccase from Myceliophthora thermophila (high concentrations); assay type: biochemical; conditions: MTL 10 U to 100 U, 50 mM sodium phosphate buffer pH 7
# Experimental: The reactions were carried out in 50 mM sodium phosphate buffer pH 7.
# laccase = assay: Thin layer chromatography of enzymatic conversion; assay type: biochemical; conditions: samples at 2, 10, 30, 60, 120 minutes
# [5] = tested on: laccase from Myceliophthora thermophila (MtL); assay: Oxygen measurement of laccase catalysed oxidation of opioids (MtL); assay type: biochemical; conditions: 10 U/ml MtL, 2 mg/ml substrate, distilled water, room temperature
# Excerpt: (§3) Laccases use oxygen as electron acceptor, consequently the oxygen concentration decreases upon substrate oxidation.
# laccase mediator system [6] = assay: Laccase mediator system and oxycodone, oxygen concentration measurement; assay type: biochemical; conditions: 10 units laccase/ml, 1000 mg/L oxycodone
# Experimental: as §1, §2
# The different mediators were used at concentrations of 2 mM with 10 units laccase ml^−1 and 1000 mgL^−1 oxycodone.
# [7] = tested on: laccase from Trametes villosa (TvL); assay: Oxygen measurement of laccase catalysed oxidation of opioids (TvL); assay type: biochemical; conditions: 10 U/ml TvL, 2 mg/ml substrate, distilled water; for oxygen concentration in solution upon laccase oxidation: room temperature
# Excerpt: as §3
# laccase mediator system [8] = assay: Laccase mediator system and oxycodone, HPLC-MS/TOF; assay type: biochemical
# Experimental: The concentrations were determined with a liquid chromatography-electrospray ionization-time of flight (HPLC-ESI-TOF) mass spectrometer from Agilent (A1260 series, Agilent US). The substances contained in the samples were separated by a Zorbax Hilic Plus, 2.1×100 mm, 3.5 μm (Agilent, US) column. The gradient was set to 100% mobile phase A (65 mM ammonium formiate pH 3.2) with a flow rate of 0.4 mL min^−1 at 40° C. and changed to 100% mobile phase B (acetonitrile) in 15 minutes with an injection volume of 1 μL. The spectra were acquired over the m/z range from 100 to 3000 at a scan rate of two spectra per second. The standard curve for each opioid was performed with corresponding standards ranging from 0.001 to 50 mg L^−1.
# In addition to the reactions shown in FIG. 17, the mediator vanillin was used at a higher concentration (6 mM). The results can be seen in FIG. 18 and FIG. 19. […] One of oxycodone's main degradation products, oxymorphone, was found in all samples. Oxymorphone is an impurity of oxycodone and is therefore present even in the controls where no laccase or mediator were used.
# pepsin = molecular target: T2, pepsin (Sus scrofa, UniProt P00791); assay: Pepsin digestion assay in simulated gastric fluid with SDS-PAGE; assay type: in vitro ADME; conditions: SGF pH 1.2 with pepsin, 37° C.
# T2 construct: purchased Sigma-Aldrich (US) P7000
# Experimental: SGF contains 0.084 M HCl, 0.035 M NaCl, 4000 U of pepsin per reaction mixture and has a pH level of 1.2 according to the United States Pharmacopeia (1995). A ratio of 10000 Units of pepsin activity to 1 mg of test protein was used throughout the assay, which is based on an evaluation of the average activity of pepsin recommended in the United States Pharmacopeia (24th edition, 2000) with some modifications. Pepsin (ref. #P7000) was purchased from Sigma-Aldrich (US). All proteins that were used were dissolved in 50 mM Tris-HCl (pH 9.5) at a concentration of 5 mg mL^−1. The reaction mixture contained 1.52 mL of SGF preheated to 37° C. before the addition of 0.08 mL of protein solution (Thomas et al., 2004). The mixture was placed into a thermomixer at 37° C. and was shaken at 400 rpm. For denaturating SDS-polyacrylamide gel electrophoresis (SDS-PAGE) analysis samples of 160 μl were removed at 0 minutes, 0.5 minutes, and 15 minutes after initiation.
# SDS-PAGE was performed to analyze and visually inspect stained protein bands whether the protein band is still intact or fragmented after the digestion assay. […]
# Each 160 μl of the digestion samples was quenched by adding 56 μl of 200 mM NaHCO3 as neutralization step and 56 μl 4× Laemmli (Laemmli 1970) buffer for electrophoresis. Samples were immediately heated up to 99° C. for 10 minutes and analyzed directly or stored at −20° C. […]
# T2 sequence (P00791 60-385): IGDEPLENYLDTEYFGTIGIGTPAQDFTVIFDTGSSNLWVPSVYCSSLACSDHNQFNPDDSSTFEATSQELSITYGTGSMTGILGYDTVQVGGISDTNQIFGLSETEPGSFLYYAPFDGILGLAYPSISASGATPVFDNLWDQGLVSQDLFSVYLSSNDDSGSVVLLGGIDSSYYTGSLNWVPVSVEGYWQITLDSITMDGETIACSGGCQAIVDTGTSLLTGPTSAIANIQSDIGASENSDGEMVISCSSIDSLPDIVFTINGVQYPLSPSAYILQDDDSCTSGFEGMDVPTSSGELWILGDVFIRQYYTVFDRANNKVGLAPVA
compound,measurement,setting,value
CC(=O)Oc1ccc2c3c1O[C@H]1[C@@H](OC(C)=O)C=C[C@H]4[C@@H](C2)N(C)CC[C@@]341 [diacetylmorphine],DAM concentration,[1],declines
same,morphine concentration formed from DAM,[1],increased
same,"diacetylmorphine hydrolyzed (total acetate yield, HPLC/RI)",[1]; pH 7,more than 50%
same,DAM concentration,[2],declines
same,morphine concentration formed from DAM,[2],increased
same,"diacetylmorphine hydrolyzed (total acetate yield, HPLC/RI)",[2]; pH 7,more than 50%
CCC(=O)C(CC(C)N(C)C)(c1ccccc1)c1ccccc1 (stereo not drawn) [methadone],oxygen concentration after addition of the opioid,laccase mediator system [3],decline in oxygen concentration
CN1CC[C@]23c4c5ccc(O)c4O[C@H]2[C@@H](O)C=C[C@H]3[C@H]1C5 [morphine],faster degradation of morphine with 10 times more laccase,[4],~10 times
same,time at which new dot(s) appear on TLC (new product),laccase,120 s
COc1ccc2c3c1O[C@H]1C(=O)CC[C@@]4(O)[C@@H](C2)N(C)CC[C@]314 [oxycodone],oxygen concentration in solution upon laccase oxidation,[5],not capable of converting oxycodone
same,oxygen concentration after addition of the opioid,laccase mediator system [6]; mediator ethylvanillin 2 mM,drop in oxygen concentration
same,oxygen concentration after addition of the opioid,laccase mediator system [6]; mediator gallic acid 2 mM,no apparent effect
same,oxygen concentration after addition of the opioid,laccase mediator system [6]; mediator syringic acid 2 mM,drop in oxygen concentration
same,oxygen concentration after addition of the opioid,laccase mediator system [6]; mediator vanillin 2 mM,drop in oxygen concentration
same,oxygen concentration in solution upon laccase oxidation,[7],not capable of converting oxycodone
same,oxycodone concentration (HPLC-MS/TOF),"laccase mediator system [8]; laccase mediator system, mediators at 2 mM, vanillin also 6 mM",decrease in oxycodone concentration was confirmed
same,effect on oxycodone (MS-TOF analysis),laccase mediator system [8]; mediator gallic acid,no apparent effect
same,peak area of oxymorphone (degradation product) by MS-TOF,laccase mediator system [8]; oxycodone in combination with the laccase mediator system,increase in peak area of oxymorphone over time
CC[C@@H](c1cccc(O)c1)[C@@H](C)CN(C)C [tapentadol],oxygen concentration in solution upon laccase oxidation,[5],much slower
same,oxygen level to which the curve drops,[7],~0%
same,oxygen concentration in solution upon laccase oxidation,[7],converts tapentadol better
same,time at which new dot(s) appear on TLC (new product),laccase,120 s
same,time at which the reference dot disappears on TLC (all converted),laccase,120 min
HRP: horse radish peroxidase,proteolytic degradation (SDS-PAGE),pepsin,very susceptible to proteolytic degradation
